According to patent US8247211B2, “Glycopeptide antibiotics” (American Cyanamid Company, priority 2001, dated 2012):
In brackets after ≈: the same amount, converted by molar mass.

What was measured:
Assay in all cases: In vitro antibacterial evaluation: minimum inhibitory concentration (MIC), broth dilution method
Type in all cases: cell-based
Streptococcus sp. = conditions: 18 hours at 35° C.
In short: (§1)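 NCCLS M7-A2 broth dilution; Muller-Hinton II […]; 5×10^5 CFU/mL; 64-0.06 μg/mL. MIC = lowest concentration with no growth.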

Staphylococcus sp. = system: Staphylococcus sp.
In short: as §1

Escherichia coli = conditions: 18 hours at 35° C.
In short: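 Susceptibility determined by NCCLS-recommended broth dilution (M7-A2), Muller-Hinton II […]. Concentration span 64-0.06 μg/mL, inoculum 5×10^5 CFU/mL. Isolates include strains resistant to methicillin, penicillin and/or vancomycin.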

Enterococcus sp. = conditions: 18 hours at 35° C.
In short: as §1

[1] = broth dilution, inoculum 5×10^5 CFU/mL

Structure (SMILES): CC(c1ccccc1)C1NC(=O)CNC(=O)C(CO)NC(=O)C(C(O)C2CNC(=N)N2C2OC(CO)C(O)C(O)C2O)NC(=O)C(C(O)C2CNC(=N)N2)NC(=O)C(Cc2ccc(OC3OC(CO)C(OC4OC5COC(c6ccccc6)OC5C(O)C4O)C(O)C3O)c(I)c2)NC1=O (stereo not drawn) [Example 196, Cyclo[glycyl-β-methylphenylalanyl-O-[4-O-(4,6-O-benzylidenehexopyranosyl)hexopyranosyl]-3-iodotyrosyl-3-(2-iminoimidazolidin-4-yl)seryl-3-(3-hexopyranosyl-2-iminoimidazolidin-4-yl)-serylseryl]]
- MIC Streptococcus agalactiae (GC 4564) (Streptococcus sp.; Streptococcus agalactiae (GC 4564)): >64 µg/mL
- MIC Streptococcus pneumoniae (ATCC 6301) (Streptococcus sp.; Streptococcus pneumoniae (ATCC 6301)): 64 µg/mL (≈ 42.4 µM)
- MIC Streptococcus pneumoniae (GC 1894) (Streptococcus sp.; Streptococcus pneumoniae (GC 1894)): 64 µg/mL (≈ 42.4 µM)
- MIC Streptococcus pneumoniae (GC 4565) (Streptococcus sp.; Streptococcus pneumoniae (GC 4565)): 64 µg/mL (≈ 42.4 µM)
- MIC Streptococcus pyogenes (GC 4563) (Streptococcus sp.; Streptococcus pyogenes (GC 4563)): 32 µg/mL (≈ 21.2 µM)
- MIC Streptococcus agalactiae (GC 4564) (Streptococcus sp.; [1]): >64 µg/mL
- MIC Streptococcus pneumoniae (ATCC 6301) (Streptococcus sp.; [1]): 64 µg/mL (≈ 42.4 µM)
- MIC Streptococcus pneumoniae (GC 1894) (Streptococcus sp.; [1]): 64 µg/mL (≈ 42.4 µM)
- MIC Streptococcus pneumoniae (GC 4565) (Streptococcus sp.; [1]): 64 µg/mL (≈ 42.4 µM)
- MIC Streptococcus pyogenes (GC 4563) (Streptococcus sp.; [1]): 32 µg/mL (≈ 21.2 µM)
- MIC Staphylococcus aureus (ATCC 29213) (Staphylococcus sp.; strain ATCC 29213): >64 µg/mL
- MIC Staphylococcus aureus (GC 1131) (Staphylococcus sp.; strain GC 1131): >64 µg/mL
- MIC Staphylococcus aureus (GC 3051) (Staphylococcus sp.; strain GC 3051): >64 µg/mL
- MIC Staphylococcus aureus (GC 3053) (Staphylococcus sp.; strain GC 3053): >64 µg/mL
- MIC Staphylococcus aureus (GC 4541) (Staphylococcus sp.; strain GC 4541): 64 µg/mL (≈ 42.4 µM)
- MIC Staphylococcus aureus (GC 4542) (Staphylococcus sp.; strain GC 4542): >64 µg/mL
- MIC Staphylococcus aureus-SMITH (GC 4543) (Staphylococcus sp.; strain GC 4543): >64 µg/mL
- MIC Staphylococcus aureus (GC 4544) (Staphylococcus sp.; strain GC 4544): >64 µg/mL
- MIC Staphylococcus aureus (GC 4545) (Staphylococcus sp.; strain GC 4545): 64 µg/mL (≈ 42.4 µM)
- MIC Staphylococcus haemolyticus (GC 4546) (Staphylococcus sp.; strain GC 4546): 32 µg/mL (≈ 21.2 µM)
- MIC Coagulase Negative Staphylococcus (GC 4547) (Staphylococcus sp.; strain GC 4547): 32 µg/mL (≈ 21.2 µM)
- MIC Coagulase Negative Staphylococcus (GC 4548) (Staphylococcus sp.; strain GC 4548): 64 µg/mL (≈ 42.4 µM)
- MIC Coagulase Negative Staphylococcus (GC 4549) (Staphylococcus sp.; strain GC 4549): 64 µg/mL (≈ 42.4 µM)
- MIC Coagulase Negative Staphylococcus (GC 4551) (Staphylococcus sp.; strain GC 4551): >64 µg/mL
- MIC Coagulase Negative Staphylococcus (GC 6257) (Staphylococcus sp.; strain GC 6257): 64 µg/mL (≈ 42.4 µM)
- MIC Escherichia coli (ATCC 25922) (Escherichia coli; Escherichia coli (ATCC 25922)): 64 µg/mL (≈ 42.4 µM)
- MIC Escherichia coli (GC 4559) (Escherichia coli; Escherichia coli (GC 4559)): 64 µg/mL (≈ 42.4 µM)
- MIC Escherichia coli (GC 4560) (Escherichia coli; Escherichia coli (GC 4560)): 8 µg/mL (≈ 5.3 µM)
- MIC Enterococcus avium (GC 4558) (Enterococcus sp.; Enterococcus avium (GC 4558)): 32 µg/mL (≈ 21.2 µM)
- MIC Enterococcus faecalis (ATCC 29212) (Enterococcus sp.; Enterococcus faecalis (ATCC 29212)): >64 µg/mL
- MIC Enterococcus faecalis (GC 2242) (Enterococcus sp.; Enterococcus faecalis (GC 2242)): >64 µg/mL
- MIC Enterococcus faecalis (GC 2691) (Enterococcus sp.; Enterococcus faecalis (GC 2691)): >64 µg/mL
- MIC Enterococcus faecalis (GC 3059) (Enterococcus sp.; Enterococcus faecalis (GC 3059)): >64 µg/mL
- MIC Enterococcus faecalis (GC 4552) (Enterococcus sp.; Enterococcus faecalis (GC 4552)): >64 µg/mL
- MIC Enterococcus faecalis (GC 4553) (Enterococcus sp.; Enterococcus faecalis (GC 4553)): 64 µg/mL (≈ 42.4 µM)
- MIC Enterococcus faecalis (GC 4554) (Enterococcus sp.; Enterococcus faecalis (GC 4554)): >64 µg/mL
- MIC Enterococcus faecalis (GC 6189) (Enterococcus sp.; Enterococcus faecalis (GC 6189)): >64 µg/mL
- MIC Enterococcus faecium (GC 2243) (Enterococcus sp.; Enterococcus faecium (GC 2243)): 64 µg/mL (≈ 42.4 µM)
- MIC Enterococcus faecium (GC 4556) (Enterococcus sp.; Enterococcus faecium (GC 4556)): >64 µg/mL
- MIC Enterococcus faecium (GC 4557) (Enterococcus sp.; Enterococcus faecium (GC 4557)): 8 µg/mL (≈ 5.3 µM)
- MIC Enterococcus avium (GC 4558) (Enterococcus sp.; [1]): 32 µg/mL (≈ 21.2 µM)
- MIC Enterococcus faecalis (ATCC 29212) (Enterococcus sp.; [1]): >64 µg/mL
- MIC Enterococcus faecalis (GC 2242) (Enterococcus sp.; [1]): >64 µg/mL
- MIC Enterococcus faecalis (GC 2691) (Enterococcus sp.; [1]): >64 µg/mL
- MIC Enterococcus faecalis (GC 3059) (Enterococcus sp.; [1]): >64 µg/mL
- MIC Enterococcus faecalis (GC 4552) (Enterococcus sp.; [1]): >64 µg/mL
- MIC Enterococcus faecalis (GC 4553) (Enterococcus sp.; [1]): 64 µg/mL (≈ 42.4 µM)
- MIC Enterococcus faecalis (GC 4554) (Enterococcus sp.; [1]): >64 µg/mL
- MIC Enterococcus faecalis (GC 6189) (Enterococcus sp.; [1]): >64 µg/mL
- MIC Enterococcus faecium (GC 2243) (Enterococcus sp.; [1]): 64 µg/mL (≈ 42.4 µM)
- MIC Enterococcus faecium (GC 4556) (Enterococcus sp.; [1]): >64 µg/mL
- MIC Enterococcus faecium (GC 4557) (Enterococcus sp.; [1]): 8 µg/mL (≈ 5.3 µM)
